Assay in all cases: inside-out macropatch dose-response of channel expressed in Xenopus oocytes
Common to all, as to assay type: cell-based

Test [1] addresses T1, Kir2.2 (Homo sapiens, UniProt Q14500).
T1 construct: gene KCNJ12
T1 sequence (Q14500 1-433): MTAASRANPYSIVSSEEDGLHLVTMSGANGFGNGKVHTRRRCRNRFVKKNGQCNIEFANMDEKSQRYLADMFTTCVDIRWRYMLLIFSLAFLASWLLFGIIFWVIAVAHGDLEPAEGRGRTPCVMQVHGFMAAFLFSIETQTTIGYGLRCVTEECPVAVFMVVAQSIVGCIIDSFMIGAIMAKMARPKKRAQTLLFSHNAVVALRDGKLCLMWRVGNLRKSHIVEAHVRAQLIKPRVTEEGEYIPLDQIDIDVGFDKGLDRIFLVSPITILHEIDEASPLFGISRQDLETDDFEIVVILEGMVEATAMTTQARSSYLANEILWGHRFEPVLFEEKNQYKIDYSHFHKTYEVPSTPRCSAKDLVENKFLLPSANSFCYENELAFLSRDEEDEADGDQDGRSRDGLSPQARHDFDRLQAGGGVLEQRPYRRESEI

Test [2] concerns the target T2, Kir2.2 (Homo sapiens, UniProt Q14500, I223L).
T2 construct: gene KCNJ12
T2 sequence (Q14500 1-433 I223L): T1 sequence (Q14500 1-433) with I223L

Test [3] deals with T3, Kir2.1 (Mus musculus, UniProt P35561).
T3 construct: gene Kcnj2
T3 sequence (P35561 1-428): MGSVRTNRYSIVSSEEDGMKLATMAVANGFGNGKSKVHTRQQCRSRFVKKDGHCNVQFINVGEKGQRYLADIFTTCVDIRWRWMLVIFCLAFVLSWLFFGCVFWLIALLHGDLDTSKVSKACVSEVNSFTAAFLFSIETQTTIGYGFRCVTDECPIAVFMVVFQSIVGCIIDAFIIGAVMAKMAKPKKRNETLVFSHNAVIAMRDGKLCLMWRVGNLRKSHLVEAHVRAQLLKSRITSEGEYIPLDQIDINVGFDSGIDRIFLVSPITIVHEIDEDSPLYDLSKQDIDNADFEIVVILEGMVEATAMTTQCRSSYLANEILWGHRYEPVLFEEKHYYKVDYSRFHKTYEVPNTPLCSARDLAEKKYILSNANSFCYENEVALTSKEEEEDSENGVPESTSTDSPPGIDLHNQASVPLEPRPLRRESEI

Test [4] has as its target T4, Kir2.1 (Mus musculus, UniProt P35561, L222I).
T4 construct: gene Kcnj2
T4 sequence (P35561 1-428 L222I): T3 sequence (P35561 1-428) with L222I

Positions count from the first letter of the chain named.

This passage reports EC50 results from paper PMC5085999, “Structural Basis for Differences in Dynamics Induced by Leu Versus Ile Residues in the CD Loop of Kir Channels” (Molecular Neurobiology, 2015).

Broadly, the EC50 is the concentration at which the effect is half-maximal. For `CCCCCCCC(=O)OC[C@H](COP(=O)(O)O[C@@H]1[C@H](O)[C@H](O)[C@@H](OP(=O)(O)O)[C@H](OP(=O)(O)O)[C@H]1O)OC(=O)CCCCCCC` [diC8 PIP2], the EC50 at Kir2.2 [1] was found to be 6.14 ± 0.45 µM; at Kir2.2 [2] it was 1.9 ± 0.23 µM; on Kir2.1 [3], 2.89 ± 0.31 µM; at Kir2.1 [4], 14 ± 0.98 µM.
